Earlier results, collected in patent US20050220774A1, “Methods of inducing differentiation in ex vivo expanded stem cells” (priority 2002, published 2005).

Key:
stem cells = conditions: PCT/IL03/00064

Row | Structure (SMILES) | differentiation of stem cells ex vivo (stem cells) | clonability of long-term cultures (CD34+ cells; long-term cultures (3-5 weeks)) | cell clonability and percentage of CD34+ cells (CD34+ cells; with early-acting or early and late acting cytokines)
1 | NC(=O)c1cccnc1 [nicotinamide] | represses the process of differentiation of stem cells | – | –
2 | NCCNCCNCCNCCN [TEPA, tetraethylenepentamine] | – | more efficient clonability | significant increases
